Entries after “also recorded” stand apart in the source; their conditions may differ.
How the values were obtained:
HepG2 cells [1] = assay: cell death, FITC Annexin V kit, flow cytometry; assay type: cell-based, human; conditions: 40 μM, 12 h
Method: Fig. 4 CH004 arrests the cell cycle at the S phase. a CH004 reduces the cell viability of HEK293T and HepG2 cells. HEK293T or HepG2 cells were treated with indicated concentrations of CH004 for 24 h before the cell number was analyzed using the CellTiter96® Aqueous One Solution Cell Proliferation Assay (Promega, Materials and Methods). The means at each concentration of one representative experiment are shown as percentages of DMSO (control, 100%). Means ± SDs (n = 3). b Overexpression of hCBS or knock-down of hCBS counteracts the growth inhibition exerted by CH004 in HEK293T cells. Indicated HEK293T stable cell lines were treated with the CH004 or DMSO for 24 h. Then, the cell viability was quantified with the CellTiter 96® Aqueous One Solution Cell Proliferation Assay under the standard protocol (Promega). […] The efficacy for CBS overexpression and knock-down in HEK293T cells was determined by Western blotting using an anti-CBS antibody (3E1, 1:2000; Abnova). c CH004 induces cell death in HEK293T and HepG2 cells. […] HEK293T cells were incubated with indicated compounds for 12 h, and the DNA content was quantified with propidium iodide to analyze the cell cycle distribution by flow cytometry (e). The cell cycle distributions for HEK293T-shNT and HEK293T-shCBS cells were accordingly analyzed and are shown in f. […]

HepG2 cells [2] = assay: intracellular ROS (DCFH-DA, flow cytometry); assay type: cell-based, human; conditions: HepG2, 12 h
Method: Fig. 5 In situ reduction of CBS activity and H2S in mitochondria by CH004 is coupled with an increase of intracellular ROS. a, b CH004 dose-dependently elevates ROS levels in both HepG2 (a) and HEK293T cells (b). The cells were treated with CH004 for 12 h or with 1 mM H2O2 for 30 min before the staining with DCFH-DA (Molecular Probes) and the analyzsis by flow cytometry (“Materials and Methods” section). Means ± SDS (n = 3). […] HepG2 cells were incubated with indicated inhibitors for 8 h before staining with the mitochondria tracker Mito-tracker® Green (Invitrogen) and the AzMC probe. Cyan represents the colocalization of H2S (blue) and the mitochondria tracker (green). Bars: 50 μm. d hCBS co-localizes with the mitochondria in HepG2 and HEK293T cells. HepG2 and HEK293T cells were stained with an anti-CBS antibody (3E1, 1:200; Abnova) for hCBS (red), Mito-tracker® Green for the mitochondria (green) and DAPI for the nucleus (blue). […]
To investigate the intracellular ROS levels, HEK293T or HepG2 cells were seeded in 6-well plates for one day, then incubated with the indicated inhibitors and 1 mM H2O2 for 12 h and 30 min, respectively. After trypsinization and one wash in PBS, the collected cells were resuspended in PBS and incubated with 100 μM probe DCFH-DA for 30 min at 37 °C before being analyzed using an LSR Fortessa flow cytometer.

HepG2 cells [3] = assay: cellular cystathionine by LC/ESI-MS/MS; assay type: cell-based, human; conditions: 8 h, 100 μM Hcys and 100 μM Ser
Method: The effect of CH004 on the level of CTH in HepG2 cells was determined by a liquid chromatography-tandem mass spectrometry (LC/ESI-MS/MS). We followed a condition, which was previously established with LC/ESI-MS/MS[56], for quantification of CTH. […] We selected the 223.1 → 88.1 transition for the quantitative method. Briefly, after the incubation with the compounds for 8 h in the presence of 100 μM Hcys and 100 μM Ser, the HepG2 cells were lysed with liquid nitrogen. 10 μl supernatant was injected to the Ultra Performance Liquid Chromatographic system on a Zorbax XDB C18 reverse phase column (4.6 × 150 mm, temperature-controlled at 10 °C), and eluted isogradiently with a solution mixed from acetonitrile (in the presence of 0.1% formic acid) and water (0.1% formic acid) (2:98, v/v) at a flow rate of 0.4 ml/min in a diode array detector (Agilent G4212A). The Agilent 6470 UHPLC-QqQ/MS system composes of a chomatographic system (Agilent 1260 Infinity) and a Triple Quad mass spectrometer fitted with an ESI source. Data was acquired in the MRM mode using Agilent MassHunter Workstation Data Acquisition Software (revision B.04).
Figure S14. […] All images are representative of three independent experiments. […] Means ± SDs (n=2).

[4] = viable cells (Annexin V-PI double negative) with CH004 and ferroptosis inhibitors, flow cytometry; conditions: human

## Cn1nc(Cc2ccccc2)nc2c(=O)n(C)c(=O)nc1-2 [CH004, 3-benzyl-1,6-dimethylpyrimido[5,4-e][1,2,4]triazine-5,7(1H,6H)-dione]
HepG2 cells [1]
  increase in cell death: ~ 80%
HepG2 cells [2]
  maximum increase of cellular ROS: ~ 2 fold
HepG2 cells [3]
  level of cystathionine (CTH): dose-dependently inhibits; also recorded: largely reduced
[4]
  viability at 24 h, 15 μM: 30.8%

Reference: PMC6158189, “A pharmacological probe identifies cystathionine β-synthase as a new negative regulator for ferroptosis” (Cell Death & Disease, 2018)
